This is an account of results in US20240358702A1, “CYCLIC UREA KRAS INHIBITORS” (INCYTE CORPORATION, priority 2023, published 2024).

One assay deals with KRAS G12V (Homo sapiens, UniProt P01116, G12V). As to the kind of experiment: GDP-GTP exchange assay (bodipy-GDP/GppNHp, SOS1), KRAS G12V. Particulars: KRAS_G12V exchange assay IC50, value for the most potent isomer quoted; for IC50: read-out: G12V_exchange. The class given is biochemical. On the procedure: (§1) The inhibitor potency of the exemplified compounds was determined in a fluorescence based guanine nucleotide exchange assay, which measures the exchange of bodipy-GDP (fluorescently labeled GDP) for GppNHp (Non-hydrolyzable GTP analog) to generate the active state of KRAS in the presence of SOS1 (guanine nucleotide exchange factor). Inhibitors were serially diluted in DMSO and a volume of 0.1 μL was transferred to the wells of a black low volume 384-well plate. 5 μL/well volume of bodipy-loaded KRAS G12D diluted to […] in assay buffer (25 mM Hepes pH 7.5, 50 mM NaCl, 10 mM mgCl2 and 0.01% Brij-35) was added to the plate and pre-incubated with inhibitor for 4 h at ambient temperature. Appropriate controls (enzyme with no inhibitor or with a G12D inhibitor) were included on the plate. The exchange was initiated by the addition of a 5 μL/well volume containing 1 mM GppNHp and 300 nM SOS1 in assay buffer. The 10 μL/well reaction concentration of the bodipy-loaded KRAS G12D, GppNHp, and SOS1 were 2.5 nM, 500 uM, and 150 nM, respectively. The reaction plates were incubated at ambient temperature for 2 h, a time estimated for complete GDP-GTP exchange in the absence of inhibitor. For the KRAS G12V mutant, similar guanine nucleotide exchange assays were used with 2.5 nM as final concentration for the bodipy loaded KRAS proteins and 3 h incubation after adding GppNHp-SOS1 mixture. A cyclic peptide described to selectively bind G12D mutant (Sakamoto et al., BBRC 484.3 (2017), 605-611) or internal compounds with confirmed binding were used as positive controls in the assay plates. Fluorescence intensities were measured on a PheraStar plate reader instrument (BMG Labtech) with excitation at 485 nm and emission at 520 nm.
(§2) Either GraphPad prism or Genedata Screener SmartFit was used to analyze the data. The IC50 values were derived by fitting the data to a four parameter logistic equation producing a sigmoidal dose-response curve with a variable Hill coefficient.
(§3) The symbol “t” indicates IC50≤100 nM, “††” indicates IC50>100 nM but ≤1 μM; and “†††” indicates IC50 is >1 μM but ≤5 μM, “††††” indicates IC50 is >5 μM but ≤10 μM. “NA” indicates IC50 not available.

Another assay concerns the target KRAS G12D (Homo sapiens, UniProt P01116, G12D). Briefly: GDP-GTP exchange assay (bodipy-GDP/GppNHp, SOS1), KRAS G12D. The class given is biochemical. Particulars: KRAS_G12D exchange assay IC50, 4 h pre-incubation, value for the most potent isomer quoted. On the procedure:
as §1, §2, §3

KRAS G12D, sequence (P01116 1-188 isoform P01116-2 G12D): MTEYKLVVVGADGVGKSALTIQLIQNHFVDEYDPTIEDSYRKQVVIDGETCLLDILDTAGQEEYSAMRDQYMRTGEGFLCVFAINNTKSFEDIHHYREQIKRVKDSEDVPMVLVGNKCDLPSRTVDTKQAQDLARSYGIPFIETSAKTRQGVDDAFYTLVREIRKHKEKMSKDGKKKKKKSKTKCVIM
KRAS G12V, sequence (P01116 1-188 isoform P01116-2 G12V): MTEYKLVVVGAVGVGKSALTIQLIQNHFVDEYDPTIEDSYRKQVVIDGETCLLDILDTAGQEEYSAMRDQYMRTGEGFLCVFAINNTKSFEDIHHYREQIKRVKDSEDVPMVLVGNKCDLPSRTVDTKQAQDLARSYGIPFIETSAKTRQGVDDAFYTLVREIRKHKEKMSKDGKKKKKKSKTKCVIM

Turning to `Cc1cc(N2CCCN([C@H](C)c3cc4c(C)nc5c(F)c(-c6cccc(Cl)c6Cl)c(CCC#N)cc5c4n3[C@H]3[C@H]4CN[C@@H]3C4)C2=O)ccn1` [Example 26, 3-(1-((1R,4R,5S)-2-azabicyclo[2.1.1]hexan-5-yl)-7-(2,3-dichlorophenyl)-6-fluoro-4-methyl-2-((R)-1-(3-(2-methylpyridin-4-yl)-2-oxotetrahydropyrimidin-1(2H)-yl)ethyl)-1H-pyrrolo[3,2-c]quinolin-8-yl)propanenitrile], the IC50 on KRAS G12V lay in the range of 100 to 1000 nM. For the same compound, at KRAS G12D, the G12D_exchange result is recorded as “†”.
On to `Cc1nc2c(F)c(-c3cccc(Cl)c3Cl)c(CCC#N)cc2c2c1cc([C@@H](C)N1CCCN(c3ccnc(F)c3)C1=O)n2[C@H]1[C@H]2CN[C@@H]1C2` [Example 27, 3-(1-((1R,4R,5S)-2-azabicyclo[2.1.1]hexan-5-yl)-7-(2,3-dichlorophenyl)-6-fluoro-2-((R)-1-(3-(2-fluoropyridin-4-yl)-2-oxotetrahydropyrimidin-1(2H)-yl)ethyl)-4-methyl-1H-pyrrolo[3,2-c]quinolin-8-yl)propanenitrile], for which, at KRAS G12V, the G12V_exchange result is “†”. Moreover, the G12D_exchange entry on KRAS G12D is listed as “†”.
As to `CC(=O)NCc1cccc(N2CCCN([C@H](C)c3cc4c(C)nc5c(F)c(-c6cccc(Cl)c6Cl)c(CCC#N)cc5c4n3[C@H]3[C@H]4CN[C@@H]3C4)C2=O)c1` [Example 28, N-(3-(3-((1R)-1-(1-((1R,4R,5S)-2-azabicyclo[2.1.1]hexan-5-yl)-8-(2-cyanoethyl)-7-(2,3-dichlorophenyl)-6-fluoro-4-methyl-1H-pyrrolo[3,2-c]quinolin-2-yl)ethyl)-2-oxotetrahydropyrimidin-1(2H)-yl)benzyl)acetamide], the G12V_exchange result on KRAS G12V was “†”. The G12D_exchange entry on KRAS G12D is given as “†”.
As for `Cc1nc2c(F)c(-c3cccc(Cl)c3Cl)c(CCC#N)cc2c2c1cc([C@@H](C)N1CCCN(c3ccnc(C#N)c3)C1=O)n2[C@H]1[C@H]2CN[C@@H]1C2` [Example 29, 4-(3-((1R)-1-(1-((1R,4R,5S)-2-azabicyclo[2.1.1]hexan-5-yl)-8-(2-cyanoethyl)-7-(2,3-dichlorophenyl)-6-fluoro-4-methyl-1H-pyrrolo[3,2-c]quinolin-2-yl)ethyl)-2-oxotetrahydropyrimidin-1(2H)-yl)picolinonitrile], at KRAS G12V, the IC50 was 100 to 1000 nM. Moreover, on KRAS G12D, the G12D_exchange result was “†”.
Taken in the same sequence, the figures for `Cc1nc2c(F)c(-c3cccc(Cl)c3Cl)c(CCC#N)cc2c2c1cc([C@@H](C)N1CCCN(c3ccnc(N(C)C)c3)C1=O)n2[C@H]1[C@H]2CN[C@@H]1C2` [Example 30, 3-(1-((1R,4R,5S)-2-azabicyclo[2.1.1]hexan-5-yl)-7-(2,3-dichlorophenyl)-2-((R)-1-(3-(2-(dimethylamino)pyridin-4-yl)-2-oxotetrahydropyrimidin-1(2H)-yl)ethyl)-6-fluoro-4-methyl-1H-pyrrolo[3,2-c]quinolin-8-yl)propanenitrile] were 100 to 1000 nM and “†”.
Turning to `Cc1nc2c(F)c(-c3cccc(Cl)c3Cl)c(CCC#N)cc2c2c1cc([C@@H](C)N1CCCN(c3ccnc(C(F)F)c3)C1=O)n2[C@H]1[C@H]2CN[C@@H]1C2` [Example 31, 3-(1-((1R,4R,5S)-2-azabicyclo[2.1.1]hexan-5-yl)-7-(2,3-dichlorophenyl)-2-((R)-1-(3-(2-(difluoromethyl)pyridin-4-yl)-2-oxotetrahydropyrimidin-1(2H)-yl)ethyl)-6-fluoro-4-methyl-1H-pyrrolo[3,2-c]quinolin-8-yl)propanenitrile], the IC50 at KRAS G12V lay in the range of 100 to 1000 nM. In addition, the G12D_exchange entry at KRAS G12D is on record as “†”.
Regarding `Cc1nc2c(F)c(-c3cccc(Cl)c3Cl)c(CCC#N)cc2c2c1cc([C@@H](C)N1CCCN(c3ccnc(N)c3)C1=O)n2[C@H]1[C@H]2CN[C@@H]1C2` [Example 32, 3-(2-((R)-1-(3-(2-aminopyridin-4-yl)-2-oxotetrahydropyrimidin-1(2H)-yl)ethyl)-1-((1R,4R,5S)-2-azabicyclo[2.1.1]hexan-5-yl)-7-(2,3-dichlorophenyl)-6-fluoro-4-methyl-1H-pyrrolo[3,2-c]quinolin-8-yl)propanenitrile], the G12V_exchange entry on KRAS G12V is “†”. For the same compound, on KRAS G12D, the G12D_exchange entry is recorded as “†”.
On to `Cc1nc2c(F)c(-c3cccc(Cl)c3Cl)c(CCC#N)cc2c2c1cc([C@@H](C)N1CCCN(c3ccncn3)C1=O)n2[C@H]1[C@H]2CN[C@@H]1C2` [Example 33, 3-(1-((1R,4R,5S)-2-azabicyclo[2.1.1]hexan-5-yl)-7-(2,3-dichlorophenyl)-6-fluoro-4-methyl-2-((R)-1-(2-oxo-3-(pyrimidin-4-yl)tetrahydropyrimidin-1(2H)-yl)ethyl)-1H-pyrrolo[3,2-c]quinolin-8-yl)propanenitrile], for which the IC50 on KRAS G12V is 100 to 1000 nM. Moreover, on KRAS G12D, the G12D_exchange result is “†”.
In the case of `Cc1nc2c(F)c(-c3cccc(Cl)c3Cl)c(CCC#N)cc2c2c1cc([C@@H](C)N1CCCN(c3cncnc3)C1=O)n2[C@H]1[C@H]2CN[C@@H]1C2` [Example 34, 3-(1-((1R,4R,5S)-2-azabicyclo[2.1.1]hexan-5-yl)-7-(2,3-dichlorophenyl)-6-fluoro-4-methyl-2-((R)-1-(2-oxo-3-(pyrimidin-5-yl)tetrahydropyrimidin-1(2H)-yl)ethyl)-1H-pyrrolo[3,2-c]quinolin-8-yl)propanenitrile], the G12V_exchange entry on KRAS G12V is given as “†”. Besides, the G12D_exchange entry at KRAS G12D was “†”.
For the compound `Cc1nc2c(F)c(-c3cccc(Cl)c3Cl)c(CCC#N)cc2c2c1cc([C@@H](C)N1CCCN(c3ccn(C)c(=O)c3)C1=O)n2[C@H]1[C@H]2CN[C@@H]1C2` [Example 36, 3-(1-((1R,4R,5S)-2-azabicyclo[2.1.1]hexan-5-yl)-7-(2,3-dichlorophenyl)-6-fluoro-4-methyl-2-((R)-1-(3-(1-methyl-2-oxo-1,2-dihydropyridin-4-yl)-2-oxotetrahydropyrimidin-1(2H)-yl)ethyl)-1H-pyrrolo[3,2-c]quinolin-8-yl)propanenitrile], the IC50 on KRAS G12V lay within 1000 to 5000 nM; on KRAS G12D (read-out: G12D_exchange) it was 100 to 1000 nM.
`Cc1nc2c(F)c(-c3cccc(Cl)c3Cl)c(CCC#N)cc2c2c1cc([C@@H](C)N1CCCN(c3cc[nH]c(=O)c3)C1=O)n2[C@H]1[C@H]2CN[C@@H]1C2` [Example 37, 3-(1-((1R,4R,5S)-2-azabicyclo[2.1.1]hexan-5-yl)-7-(2,3-dichlorophenyl)-6-fluoro-4-methyl-2-((R)-1-(2-oxo-3-(2-oxo-1,2-dihydropyridin-4-yl)tetrahydropyrimidin-1(2H)-yl)ethyl)-1H-pyrrolo[3,2-c]quinolin-8-yl)propanenitrile]: at KRAS G12V, the IC50 was 100 to 1000 nM. Further, the G12D_exchange result at KRAS G12D is reported as “†”.
Turning to `Cc1nc2c(F)c(-c3cccc(Cl)c3Cl)c(CCC#N)cc2c2c1cc([C@@H](C)N1CCCN(c3ccnc4sccc34)C1=O)n2[C@H]1[C@H]2CN[C@@H]1C2` [Example 38, 3-(1-((1R,4R,5S)-2-azabicyclo[2.1.1]hexan-5-yl)-7-(2,3-dichlorophenyl)-6-fluoro-4-methyl-2-((R)-1-(2-oxo-3-(thieno[2,3-b]pyridin-4-yl)tetrahydropyrimidin-1(2H)-yl)ethyl)-1H-pyrrolo[3,2-c]quinolin-8-yl)propanenitrile], at KRAS G12V, the G12V_exchange entry is “†”. For the same compound, the G12D_exchange entry on KRAS G12D is reported as “†”.
As to `CC(O)c1nc2c(F)c(-c3cccc(Cl)c3Cl)c(CCC#N)cc2c2c1cc([C@@H](C)N1CCCN(c3ccncc3)C1=O)n2[C@H]1[C@H]2CN[C@@H]1C2` (stereo partly drawn) [Example 39, 3-(1-((1R,4R,5S)-2-azabicyclo[2.1.1]hexan-5-yl)-7-(2,3-dichlorophenyl)-6-fluoro-4-(1-hydroxyethyl)-2-((R)-1-(2-oxo-3-(pyridin-4-yl)tetrahydropyrimidin-1(2H)-yl)ethyl)-1H-pyrrolo[3,2-c]quinolin-8-yl)propanenitrile], at KRAS G12V, the G12V_exchange entry is on record as “†”. Further, the G12D_exchange result at KRAS G12D was “†”.
As for `Cc1nc2c(F)c(-c3cccc(Cl)c3Cl)c(CCC#N)cc2c2c1cc([C@@H](C)N1CCCN(c3ccc(F)cn3)C1=O)n2[C@H]1[C@H]2CN[C@@H]1C2` [Example 40, 3-(1-((1R,4R,5S)-2-azabicyclo[2.1.1]hexan-5-yl)-7-(2,3-dichlorophenyl)-6-fluoro-2-((R)-1-(3-(5-fluoropyridin-2-yl)-2-oxotetrahydropyrimidin-1(2H)-yl)ethyl)-4-methyl-1H-pyrrolo[3,2-c]quinolin-8-yl)propanenitrile], the G12V_exchange result on KRAS G12V is “†”. Besides, the G12D_exchange result at KRAS G12D is given as “†”.
